The values below come from patent publication US9255101B2 (BIOPROJECT, priority 2012, dated 2016).

Molecules are shown by their SMILES. Structures can show the parent of a compound that is named as a salt.

Assay [1] addresses T1, human H4 receptor (Homo sapiens, UniProt Q9H3N8). The assay is described as follows: biochemical.
For assay [2], the target named is T1, human H4 receptor. Nature of the assay: biochemical. The source holds these as a separate data set.
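Throughout, for IC50: membranes from SH-SY5Y cells with stable human H4 receptor expression, incubated with GDP 10 µM, radioactivity retained on filters counted by liquid scintillation.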
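Throughout, for Ki: radioligand displacement of a [3H]-labelled ligand from membranes of CHO cells stably expressing human H4 receptor, bound radioactivity counted on filters by liquid scintillation.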

T1 sequence (Q9H3N8 whole entry): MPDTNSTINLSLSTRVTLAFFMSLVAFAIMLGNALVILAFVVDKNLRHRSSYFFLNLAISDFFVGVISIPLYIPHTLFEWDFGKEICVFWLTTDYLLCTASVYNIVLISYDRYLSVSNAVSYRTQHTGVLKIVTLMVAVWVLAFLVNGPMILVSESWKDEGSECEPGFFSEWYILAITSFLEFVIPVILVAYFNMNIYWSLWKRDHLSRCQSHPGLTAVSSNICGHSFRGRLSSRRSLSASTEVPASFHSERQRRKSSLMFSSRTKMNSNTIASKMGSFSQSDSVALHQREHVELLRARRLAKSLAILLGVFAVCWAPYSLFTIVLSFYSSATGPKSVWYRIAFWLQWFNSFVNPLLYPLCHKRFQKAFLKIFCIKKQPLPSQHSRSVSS

On to `CCSc1ccc(-c2cn3c(n2)C(OC2CCN(C)CC2)c2ccccc2CC3)cc1` (stereo not drawn) [Example 46, 2-(4-ethylsulfanylphenyl)-4-(1-methylpiperidin-4-yloxy)-9,10-dihydro-4H-3,10a-diaza-benzo[f]azulene oxalate], for which the IC50 in assay [1] was less than 30 nM. In addition, in assay [2], the Ki is less than 30 nM. With `CN1CCC(OC2c3ccccc3CCn3cc(C4=CCN(C(=O)OC(C)(C)C)CC4)nc32)CC1` (stereo not drawn) [Example 74, 4-[4-(1-methylpiperidin-4-yloxy)-9,10-dihydro-4H-3,10a-diaza-benzo[f]azulen-2-yl]-3,6-dihydro-2H-pyridine-1-carboxylic acid tert-butyl ester oxalate], the half-maximal inhibitory concentration (IC50) in assay [1] was less than 300 nM. Besides, the Ki in assay [2] is less than 300 nM.

In assay [1], `CN1CCC(OC2c3ccccc3CCn3c2nc(-c2ccccc2)c3Cl)CC1` (stereo not drawn) [Example 134, 1-chloro-4-(1-methylpiperidin-4-yloxy)-2-phenyl-9,10-dihydro-4H-3,10a-diaza-benzo[f]azulene] yielded a concentration for half-maximal inhibition (IC50) of less than 30 nM. Also, in assay [2], the Ki was less than 30 nM. As to `CN1CCC(OC2c3ccccc3CCn3cc(-c4ccccc4Cl)nc32)CC1` (single isomer, unassigned) [Example 54B, 2-(2-chlorophenyl)-4-(1-methylpiperidin-4-yloxy)-9,10-dihydro-4H-3,10a-diaza-benzo[f]azulene], the IC50 in assay [1] is less than 30 nM. In assay [2], the Ki is less than 300 nM. Turning to `Cc1c(-c2ccc(N3CCN(C)C3=O)cc2)nc2n1CCc1ccccc1C2OC1CCN(C)CC1` (stereo not drawn) [Example 132, 1-methyl-3-{4-[1-methyl-4-(1-methylpiperidin-4-yloxy)-9,10-dihydro-4H-3,10a-diaza-benzo[f]azulen-2-yl]-phenyl}-imidazolidin-2-one], the Ki in assay [2] is less than 300 nM. Same read-out and setting: under `CN1CCC(OC2c3ccccc3CCn3cc(SCCNC(=O)OC(C)(C)C)nc32)CC1` (stereo not drawn) [Example 84, {2-[4-(1-methylpiperidin-4-yloxy)-9,10-dihydro-4H-3,10a-diaza-benzo[f]azulen-2-ylsulfanyl]-ethyl}-carbamic acid tert-butyl ester oxalate] stands less than 300 nM; under `Cc1c(-c2ccc(NC(=O)OC(C)(C)C(Cl)(Cl)Cl)cc2)nc2n1CCc1ccccc1C2OC1CCN(C)CC1` (stereo not drawn) [Example 175, {4-[1-methyl-4-(1-methylpiperidin-4-yloxy)-9,10-dihydro-4H-3,10a-diaza-benzo[f]azulen-2-yl]-phenyl}-carbamic acid 2,2,2-trichloro-1,1-dimethyl-ethyl ester], less than 30 nM; under `CN1CCC(OC2c3ccccc3CCn3cc(-c4ccccn4)nc32)CC1` (stereo not drawn) [Example 23, 4-(1-methylpiperidin-4-yloxy)-2-pyridin-2-yl-9,10-dihydro-4H-3,10a-diaza-benzo[f]azulene], less than 1000 nM. On the same count and under the same terms, under `CN(C)Cc1ccc(-c2cn3c(n2)C(OC2CCN(C)CC2)c2ccccc2CC3)cc1` (stereo not drawn) [Example 113, dimethyl-{4-[4-(1-methylpiperidin-4-yloxy)-9,10-dihydro-4H-3,10a-diaza-benzo[f]azulen-2-yl]-benzyl}-amine] stands less than 300 nM; under `CN1CCC(OC2c3ccccc3CCn3cc(-c4ccc(C(=O)NCCO)cc4)nc32)CC1` (stereo not drawn) [Example 212, N-(2-hydroxyethyl)-4-[4-(1-methylpiperidin-4-yloxy)-9,10-dihydro-4H-3,10a-diaza-benzo[f]azulen-2-yl]benzamide], less than 1000 nM.

With `Cc1c(-c2ccc(C3=CCCC3)cc2)nc2n1CCc1ccccc1C2OC1CCN(C)CC1` (stereo not drawn) [Example 169, 2-(4-cyclopent-1-enylphenyl)-1-methyl-4-(1-methylpiperidin-4-yloxy)-9,10-dihydro-4H-3,10a-diaza-benzo[f]azulene], in assay [2], the Ki was less than 30 nM. On the same count and under the same terms, under `CN1CCC(OC2c3ccccc3CCn3cc(-c4ncco4)nc32)CC1` (stereo not drawn) [Example 40, 4-(1-methylpiperidin-4-yloxy)-2-oxazol-2-yl-9,10-dihydro-4H-3,10a-diaza-benzo[f]azulene oxalate] stands less than 1000 nM; under `CN1CCC(OC2c3ccccc3CCn3cc(C(C)(C)c4ccc(Cl)cc4)nc32)CC1` (stereo not drawn) [Example 117, 2-[1-(4-chlorophenyl)-1-methyl-ethyl]-4-(1-methylpiperidin-4-yloxy)-9,10-dihydro-4H-3,10a-diaza-benzo[f]azulene oxalate], less than 300 nM. Still for that read-out and setting: for `C=Cc1cn2c(n1)C(OC1CCN(C)CC1)c1ccccc1CC2` (stereo not drawn) [Example 9, 4-(1-methylpiperidin-4-yloxy)-2-vinyl-9,10-dihydro-4H-3,10a-diaza-benzo[f]azulene oxalate] the value was less than 1000 nM; for `CN1CCC(OC2c3ccccc3CCn3cc(-c4ccc(CSCCNC(=O)OC(C)(C)C)cc4)nc32)CC1` (stereo not drawn) [Example 199, (2-{4-[4-(1-methylpiperidin-4-yloxy)-9,10-dihydro-4H-3,10a-diaza-benzo[f]azulen-2-yl]benzylsulfanyl}-ethyl)-carbamic acid tert-butyl ester], less than 300 nM. In the case of `CC(C)SCc1ccc(-c2cn3c(n2)C(OC2CCN(C)CC2)c2ccccc2CC3)cc1` (stereo not drawn) [Example 186, 2-(4-isopropylsulfanylmethylphenyl)-4-(1-methylpiperidin-4-yloxy)-9,10-dihydro-4H-3,10a-diaza-benzo[f]azulene], the Ki in assay [2] is less than 300 nM. Same read-out and setting: under `CN1CCC(OC2c3ccccc3CCn3cc(CCCOCc4ccccc4)nc32)CC1` (stereo not drawn) [Example 128, 2-(3-benzyloxypropyl)-4-(1-methylpiperidin-4-yloxy)-9,10-dihydro-4H-3,10a-diaza-benzo[f]azulene oxalate] stands less than 300 nM; under `CN1CCC(OC2c3ccccc3CCn3c2nc(I)c3I)C1` (stereo not drawn) [Example 268, 1,2-diiodo-4-(1-methylpyrrolidin-3-yloxy)-9,10-dihydro-4H-3,10a-diaza-benzo[f]azulene], less than 300 nM; under `CN1CCC(OC2c3ccccc3CCn3cc(Cc4ccccc4)nc32)CC1` (stereo not drawn) [Example 110, 2-benzyl-4-(1-methyl-piperidin-4-yloxy)-9,10-dihydro-4H-3,10a-diaza-benzo[f]azulene oxalate], less than 300 nM. `CN1CCC(OC2c3ccccc3CCn3c2nc(-c2ccc(NC(=O)OC(C)(C)C)cc2)c3Cl)CC1` (stereo not drawn) [Example 141, {4-[1-chloro-4-(1-methylpiperidin-4-yloxy)-9,10-dihydro-4H-3,10a-diaza-benzo[f]azulen-2-yl]-phenyl}-carbamic acid tert-butyl ester] had a Ki in assay [2] of less than 30 nM. The same measure, in the same setting: under `Cc1c(-c2ccc(NC(=O)NC34CC5CC(CC(C5)C3)C4)cc2)nc2n1CCc1ccccc1C2OC1CCN(C)CC1` (stereo not drawn) [Example 213, 1-adamantan-1-yl-3-{4-[1-methyl-4-(1-methylpiperidin-4-yloxy)-9,10-dihydro-4H-3,10a-diaza-benzo[f]azulen-2-yl]-phenyl}-urea] stands less than 30 nM; under `CN1CCC(OC2c3ccccc3CCn3cc(-c4ccc(S(C)(=O)=O)cc4)nc32)CC1` (stereo not drawn) [Example 17, 2-(4-methanesulfonylphenyl)-4-(1-methylpiperidin-4-yloxy)-9,10-dihydro-4H-3,10a-diaza-benzo[f]azulene], less than 300 nM.

`CN1CCC(OC2c3ccccc3CCn3cc(-c4ccc(CNC(=O)C(C)(C)C)cc4)nc32)CC1` (stereo not drawn) [Example 136, 2,2-dimethyl-N-{4-[4-(1-methylpiperidin-4-yloxy)-9,10-dihydro-4H-3,10a-diaza-benzo[f]azulen-2-yl]-benzyl}-propionamide] had a Ki in assay [2] of less than 300 nM.

Take `CCc1cn2c(n1)C(OC1CCN(C)CC1)c1ccccc1CC2` (stereo not drawn) [Example 13, 2-ethyl-4-(1-methylpiperidin-4-yloxy)-9,10-dihydro-4H-3,10a-diaza-benzo[f]azulene oxalate]: in assay [2], the Ki is less than 300 nM. Same read-out and setting: for `CN1CCC(OC2c3ccccc3CCn3cc(-c4ccc(C(=O)NC5CCC(O)CC5)cc4)nc32)CC1` (stereo not drawn) [Example 108, N-(4-hydroxycyclohexyl)-4-[4-(1-methylpiperidin-4-yloxy)-9,10-dihydro-4H-3,10a-diaza-benzo[f]azulen-2-yl]-benzamide] the value was less than 1000 nM; for `C=CCOc1ccc(-c2cn3c(n2)C(OC2CCN(C)CC2)c2ccccc2CC3)cc1` (stereo not drawn) [Example 183, 2-(4-allyloxyphenyl)-4-(1-methylpiperidin-4-yloxy)-9,10-dihydro-4H-3,10a-diaza-benzo[f]azulene], less than 30 nM. On the same count and under the same terms, for `C=C(C)Cc1nc2n(c1C(N)=O)CCc1ccccc1C2OC1CCN(C)CC1` (stereo not drawn) [Example 266, 2-(2-methylallyl)-4-(1-methylpiperidin-4-yloxy)-9,10-dihydro-4H-3,10a-diaza-benzo[f]azulene-1-carboxylic acid amide] the value was less than 300 nM. On the same count and under the same terms, for `Cc1c(-c2ccc(N3CCN(C(C)C)C3=O)cc2)nc2n1CCc1ccccc1C2OC1CCN(C)CC1` (stereo not drawn) [Example 178, 1-isopropyl-3-{4-[1-methyl-4-(1-methylpiperidin-4-yloxy)-9,10-dihydro-4H-3,10a-diaza-benzo[f]azulen-2-yl]-phenyl}-imidazolidin-2-one] the value was less than 30 nM. The compound `CN1CCC(OC2c3ccccc3CCn3c2nc(Cc2ccccc2)c3C#N)CC1` (stereo not drawn) [Example 263, 2-benzyl-4-(1-methylpiperidin-4-yloxy)-9,10-dihydro-4H-3,10a-diaza-benzo[f]azulene-1-carbonitrile] yielded an inhibitory constant (Ki) in assay [2] of less than 300 nM. Still for that read-out and setting: under `CN1CCC(OC2c3ccccc3CCn3cc(-c4ccc(CCN(C)C(=O)OC(C)(C)C)cc4)nc32)CC1` (stereo not drawn) [Example 197, methyl-(2-{4-[4-(1-methylpiperidin-4-yloxy)-9,10-dihydro-4H-3,10a-diaza-benzo[f]azulen-2-yl]-phenyl}-ethyl)-carbamic acid tert-butyl ester] stands less than 30 nM; under `C=C(C)Cc1nc2n(c1C)CCc1ccccc1C2OC1CCN(C)CC1` (stereo not drawn) [Example 260, 1-methyl-2-(2-methylallyl)-4-(1-methylpiperidin-4-yloxy)-9,10-dihydro-4H-3,10a-diaza-benzo[f]azulene], less than 300 nM. For the compound `Cc1c(-c2ccc(NC(=S)NC3CC3)cc2)nc2n1CCc1ccccc1C2OC1CCN(C)CC1` (stereo not drawn) [Example 208, 1-cyclopropyl-3-{4-[1-methyl-4-(1-methylpiperidin-4-yloxy)-9,10-dihydro-4H-3,10a-diaza-benzo[f]azulen-2-yl]-phenyl}-thiourea], in assay [2], the Ki was less than 300 nM.
